Test results published in patent US5871949A, “Method of quantitative assay for 1,5-anhydroglucitol and reagent for quantitative assay” (Daiichi Pure Chemicals Co., Ltd., priority 1996, dated 1999).

Legend:
Format in all cases: biochemical, Agrobacterium tumefaciens NT 1130
1,5-AG dehydrogenase [1] = test: Electron acceptor utilisation by 1,5-AG dehydrogenase (relative activity); details: 100 mM potassium phosphate buffer pH 8.0
Method: In 100 mM of the potassium phosphate buffer (pH 8.0), various electron acceptors were made present together with the present enzyme, where the activities on the respective electron acceptors were indicated as relative activities, which were as shown in Table 3.

1,5-AG dehydrogenase [2] = test: Substrate specificity of 1,5-AG dehydrogenase (relative activity on various sugars); details: substrate final concentration 5 mM; for Relative activity (substrate specificity): 1,5-AG = 100, nitrotetrazolium blue, pH 8.0, 37° C.
Method: The activity of the 1,5-AG dehydrogenase is measured in the following way. That is, 3.0 ml in total of an enzyme-containing solution comprised of 1.5 ml of 0.2M potassium phosphate buffer (pH 8.0), 0.3 ml of 0.25% by weight nitrotetrazolium blue, 0.3 ml of 2% by weight nonionic surface-active agent, 0.3 ml of an aqueous 50 mM 1,5-AG solution, 0.45 ml of water and 0.15 ml of an enzyme solution is reacted at 37° C., and a change in absorbance (ΔmOD/min) at 540 nm is measured. The molecular extinction coefficient (or molar absorption coefficient) of a formazan dye formed under such conditions is given as 16.7×10^3 and the quantity of the enzyme capable of forming 1 μmol of formazan in one minute is regarded as one unit, where the activity of the 1,5-AG dehydrogenase is determined according to the following expression; [formula] (1) Activity:
Relative activities (substrate specificity) of instances where the 1,5-AG was replaced with various sugar solutions (all having a final concentration of 5 mM) in the above method of measuring the enzymatic activity are shown in Table 2.

1,5-AG dehydrogenase [3] = test: Km value by Lineweaver-Burk plot; details: read-out: Km value with respect to 1,5-AG
Method: The Km value of the present enzyme with respect to 1,5-AG was determined by the Lineweaver-Burk plot to reveal that it was about 0.5 mM.

Q: How did the “Relative activity (electron acceptor)” value (1,5-AG dehydrogenase [1]; acceptor 1.0 mM) turn out when `NC(=O)c1ccc[n+]([C@@H]2O[C@H](COP(=O)([O-])OP(=O)(O)OC[C@H]3O[C@@H](n4cnc5c(N)ncnc54)[C@H](O)[C@@H]3O)[C@@H](O)[C@H]2O)c1` [NAD, nicotinamide adenine dinucleotide] was run?
A: 0%

Q: With `O=C[C@H](O)[C@@H](O)[C@@H](O)[C@H](O)CO` [D-galactose] as the compound, how does the “Relative activity (substrate specificity)” value (1,5-AG dehydrogenase [2]) read?
A: 0

Q: Which results are given for `OC[C@H]1OC[C@H](O)[C@@H](O)[C@@H]1O` [1,5-AG, 1,5-anhydroglucitol]?
A: Action of the enzyme on the substrate (in words) (1,5-AG dehydrogenase [2]): strongly acted; Relative activity (substrate specificity) (1,5-AG dehydrogenase [2]): 100; Km (1,5-AG dehydrogenase [3]): ~500 µM

Q: How did the “Relative activity (substrate specificity)” value (1,5-AG dehydrogenase [2]) turn out when `O[C@H]1[C@H](O)[C@@H](O)[C@H](O)[C@@H](O)[C@H]1O` [Myoinocitol] was run?
A: 0

Q: With `O=C(CO)[C@@H](O)[C@H](O)[C@@H](O)CO` [L-sorbose] as the compound, how does the “Action of the enzyme on the substrate (in words)” value (1,5-AG dehydrogenase [2]) read?
A: weakly acted

Q: And the “Relative activity (substrate specificity)” value (1,5-AG dehydrogenase [2])?
A: 25

Q: `OC[C@@H](O)[C@@H](O)[C@H](O)[C@@H](O)CO` [Glucitol] was tested. Which “Relative activity (substrate specificity)” value (1,5-AG dehydrogenase [2]) did it give?
A: 0

Q: Which “Relative activity (electron acceptor)” value (1,5-AG dehydrogenase [1]; acceptor 1.0 mM) does the source give for `NC(=O)c1ccc[n+]([C@@H]2O[C@H](COP(=O)([O-])OP(=O)(O)OC[C@H]3O[C@@H](n4cnc5c(N)ncnc54)[C@H](OP(=O)(O)O)[C@@H]3O)[C@@H](O)[C@H]2O)c1` [NADP] here?
A: 0%

Q: `OC[C@H]1O[C@H](O[C@H]2[C@H](O)[C@@H](O)C(O)O[C@@H]2CO)[C@H](O)[C@@H](O)[C@@H]1O` (mixture of isomers) [Maltose] was tested. Which “Relative activity (substrate specificity)” value (1,5-AG dehydrogenase [2]) did it give?
A: 0

Q: With `O=C(CO)[C@@H](O)[C@H](O)[C@H](O)CO` [D-fructose] as the compound, how does the “Relative activity (substrate specificity)” value (1,5-AG dehydrogenase [2]) read?
A: 2

Q: With `O=O` [Oxygen] as the compound, how does the “Relative activity (electron acceptor)” value (1,5-AG dehydrogenase [1]; dissolved oxygen) read?
A: 0%

Q: For `COc1cc(-c2ccc(-[n+]3nc(-c4ccccc4)nn3-c3ccc([N+](=O)[O-])cc3)c(OC)c2)ccc1-[n+]1nc(-c2ccccc2)nn1-c1ccc([N+](=O)[O-])cc1` [Nitrotetrazolium blue], which “Relative activity (electron acceptor)” value (1,5-AG dehydrogenase [1]; acceptor 1.0 mM) is on record?
A: 53%

Q: Which “Action of the enzyme on the substrate (in words)” value (1,5-AG dehydrogenase [2]) does the source give for `O=C[C@H](O)[C@@H](O)[C@H](O)[C@H](O)CO` [D-glucose] here?
A: slightly acted

Q: What about the “Relative activity (substrate specificity)” value (1,5-AG dehydrogenase [2]) of the same compound?
A: 11

Q: For `O=C1C(Cl)=CC(=Nc2ccc(O)cc2)C=C1Cl` [2,6-Dichlorophenolindophenol], which “Relative activity (electron acceptor)” value (1,5-AG dehydrogenase [1]; acceptor 0.1 mM) is on record?
A: 100%
